This is an account of results in patent US6673827B1, “Methods of treating fungal infections with inhibitors of NAD synthetase enzyme” (priority 1999, dated 2004).

Data set [1] relates to Cryptococcus neoformans SLP-BC0012854. Description: In vitro study of inhibition of growth and lethality against yeast (MIC/MLC susceptibility test), isolate H. In kind it is cell-based. The following applies: Cryptococcus neoformans, 2nd pair of lines, isolate assigned by line order.
In data set [2] the test system is Torulopsis glabrata JHC-BC9951635. Description: In vitro study of inhibition of growth and lethality against yeast (MIC/MLC susceptibility test), isolate E. Format: cell-based. The following applies: Torulopsis glabrata, 2nd pair of lines, isolate assigned by line order.
For data set [3], the system named is Candida tropicalis (ATCC 750). Description: Minimum Inhibitory Concentration (MIC) against yeast, broth dilution. In kind it is cell-based. The following applies: 37° C., 20 hours, mean of duplicate.
In data set [4] the test system is Candida tropicalis (ATCC 28707-amphotericin B-resistant). Described as above. In kind it is cell-based. To be noted: 20 hours, mean of duplicate.
For data set [5], the system named is Candida tropicalis ATCC 28707. Description: In vitro study of inhibition of growth and lethality against yeast (MIC/MLC susceptibility test), isolate B. Format: cell-based. The following applies: Candida tropicalis, 1st pair of lines, isolate assigned by line order.
The test system of data set [6] is Candida albicans LH-000664533. Briefly: In vitro study of inhibition of growth and lethality against yeast (MIC/MLC susceptibility test), isolate D. Format: cell-based. The following applies: Candida albicans, 2nd pair of lines, isolate assigned by line order.
Data set [7] relates to Torulopsis glabrata ERH-BC9938274. Description: In vitro study of inhibition of growth and lethality against yeast (MIC/MLC susceptibility test), isolate F. In kind it is cell-based. To be noted: Torulopsis glabrata, 1st pair of lines, isolate assigned by line order.
For another data set, the system named is Male CD-1 mice. Description: In vivo toxicity: intraperitoneal (IP) dosage in mice resulting in 50% lethality (LD50). The following applies: single IP dose, observed 14 days.
Data set [8] addresses T1, NAD synthetase (recombinant protein from B. subtilis; purified) (Bacillus subtilis, UniProt P08164).
T1 construct: made in house
Description: NAD synthetase enzyme inhibition assay (coupled enzymatic assay, HTS). In kind it is biochemical. On the procedure: NAD Synthetase Enzyme Inhibition Assay-Determination of Test Compound Concentrations Providing 50% Inhibition ([…]) of the Maximum Enzyme Rate
The potential inhibitory activity of the synthetic compounds was determined by the use of a coupled enzymatic assay. The coupled assay involves two steps as summarized below. [drawing 98]
The measurement of inhibitory activities of the test compounds was facilitated by the use of a high through-put screening system (HTS system). The HTS system utilizes an integrated Sagian 2M ORCA robotic system coordinating the functions of a Beckman Biomek 2000 liquid handler and a Molecular Devices SpectraMax Plus spectrophotometer. The 2M ORCA robotic station is responsible for the movement of all hardware and the integration of multiple stations on the worksurface. The Biomek 2000 is programmed to perform all phases of liquid dispensing and mixing. The SpectraMax Plus spectrophotometer is equipped to monitor absorbance in a 96-well plate format.
The Biomek 2000 mixes these components utilizing a predefined mixing program. […] The reaction is monitored by measuring the increase in absorbance at 340 nm (NADH). The linear portion of the reaction is monitored for 180 sec. The initial velocity is determined using Softmax Pro, the software supplied with the Molecular Devices SpectrMax Plus spectrophotometer.
The test compounds were supplied as a stock solution with a concentration of 50 mM dissolved in 100% dimethyl sulfoxide (DMSO). An initial screen was conducted on all compounds using a 2 or 3 concentration screen. The 2 panel screen used concentrations of 0.2 mM and 0.1 mM for the compounds. The 3 panel screen used concentrations of 0.2 mM, 0.1 mM, and 0.05 mM. […] The IC50 values for each compound were determined graphically from a plot of % inhibition versus […].

The subject of data set [9] is Candida albicans KJP-000531594. Description: In vitro study of inhibition of growth and lethality against yeast (MIC/MLC susceptibility test), isolate C. Format: cell-based. To be noted: Candida albicans, 1st pair of lines.
The subject of data set [10] is Cryptococcus neoformans DLB-1027594CNC. Briefly: In vitro study of inhibition of growth and lethality against yeast (MIC/MLC susceptibility test), isolate G. In kind it is cell-based. The following applies: Cryptococcus neoformans, 1st pair of lines, isolate assigned by line order.
The subject of data set [11] is Candida albicans (ATCC 10231). Description: Minimum Inhibitory Concentration (MIC) against yeast, broth dilution. Format: cell-based. The following applies: 37° C., 20 hours, mean of duplicate.
The subject of data set [12] is Candida tropicalis ATCC 750. Description: In vitro study of inhibition of growth and lethality against yeast (MIC/MLC susceptibility test), isolate A. In kind it is cell-based. The following applies: Candida tropicalis, 2nd pair of lines, isolate assigned by line order.

Where “and” joins values, the source holds several entries; their conditions need not be identical. Identical values can stand only once. Like-named read-outs stand apart in the source and are kept apart here.

T1 sequence (P08164 whole entry): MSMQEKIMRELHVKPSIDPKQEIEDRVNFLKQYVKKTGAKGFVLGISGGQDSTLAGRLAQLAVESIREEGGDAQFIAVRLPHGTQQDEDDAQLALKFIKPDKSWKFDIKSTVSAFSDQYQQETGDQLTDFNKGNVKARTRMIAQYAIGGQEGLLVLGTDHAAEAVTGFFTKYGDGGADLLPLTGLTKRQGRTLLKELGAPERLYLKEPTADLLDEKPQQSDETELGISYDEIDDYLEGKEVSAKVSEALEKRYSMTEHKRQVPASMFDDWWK

`C[n+]1cccc(C(=O)OCCCCCCCCn2ccc3cc(OCc4ccccc4)ccc32)c1` [Compound 769]: the “Minimum Inhibitory Conc. (MIC), 48 hr.” value in data set [1] (read at 48 hr) is 0.5 µg/mL and 1 µg/mL; in data set [2] (read at 48 hr), 1 µg/mL; in data set [5] (read at 48 hr) it was 0.5 µg/mL; in data set [6] (read at 48 hr) it was 2 µg/mL; in [7] (read at 48 hr) it was 2 µg/mL; in data set [9] (read at 48 hr, isolate assigned by line order), 2 µg/mL and 4 µg/mL. Besides, the results for the “Minimum Inhibitory Conc. (MIC), 48 hr.” value in data set [10] (read at 48 hr) and in data set [12] (read at 48 hr) were 0.5 µg/mL and 1 µg/mL, respectively. The “Minimum Inhibitory Conc. (MIC), 72 hr.” value in data set [1] (read at 72 hr) was 0.5 µg/mL and 1 µg/mL; in data set [10] (read at 72 hr), 1 µg/mL. The “Minimum Lethal Conc. (MLC)” value in data set [1] was 2 µg/mL; in data set [2], 1 µg/mL; in data set [5], 2 µg/mL; in [6], 8 µg/mL; in data set [7], 2 µg/mL; in data set [9] (isolate assigned by line order), 8 µg/mL. For the same compound, the “Minimum Lethal Conc. (MLC)” value in data set [10] and in data set [12] was 2 µg/mL throughout. Besides, the “Minimum Inhibitory Conc. (MIC), 24 hr.” value in data set [2] (read at 24 hr) was 0.5 µg/mL; in data set [5] (read at 24 hr) it was 0.25 µg/mL; in [6] (read at 24 hr), 1 µg/mL; in data set [7] (read at 24 hr), 1 µg/mL; in data set [9] (read at 24 hr, isolate not given, assigned by line order and MLC of Table 4B) it was 2 µg/mL and 1 µg/mL; in [12] (read at 24 hr), 1 µg/mL. Further, the “MIC Candida tropicalis (ATCC 750)” value in data set [3] amounted to 0.098 µg/mL. For the same compound, the “MIC Candida tropicalis (ATCC 28707)” value in [4] (37° C.) came out at 0.098 µg/mL. The same compound registered an LD50 in the data set with Male CD-1 mice of 43 mg/kg. Further, the “IC50 (μg/mL) for Inhibit. of NAD Synthetase” value in data set [8] (table of structures used in the yeast assay (Example 4)) was determined as 20 µg/mL. In [11], the “MIC Candida albicans (ATCC 10231)” value came to 4.7 µg/mL.
For `C[n+]1cccc(C(=O)OCCCCCCCCCn2ccc3ccccc32)c1` [Compound 970], in [8] (read-out: IC50: concentration of test compound producing 50% inhibition of the NAD synthetase enzyme rate, Table 1, recombinant B. subtilis NAD synthetase, absorbance at 340 nm), the IC50 stood at 20 µM. Besides, the “MIC Candida albicans (ATCC 10231)” value in [11] came to 0.8 µg/mL.
Take `C[N+](C)(C)c1ccc(CC(=O)OCCCCCCCCOc2ccc(OCc3ccccc3)cc2)cc1.[I-]` [Compound 1094]: the minimal inhibitory concentration (MIC) turned out to be 1 µg/mL in data set [1] (SLPBC0012854, 48 h, read at 48 hr, read-out: Minimum Inhibitory Conc. (MIC), 48 hr.); 1 µg/mL in data set [1] (SLPBC0012854, 72 h, read at 72 hr, read-out: Minimum Inhibitory Conc. (MIC), 72 hr.); 0.5 µg/mL in data set [2] (Nakaseomyces glabratus, JHCBC9951635, 24 h, read at 24 hr, read-out: Minimum Inhibitory Conc. (MIC), 24 hr.); 1 µg/mL in [2] (Nakaseomyces glabratus, JHCBC9951635, 48 h, read at 48 hr, read-out: Minimum Inhibitory Conc. (MIC), 48 hr.); 0.78 µg/mL in [3] (Candida tropicalis, ATCC750); 0.78 µg/mL in data set [4] (Candida tropicalis, ATCC28707, 37° C.). Moreover, the MIC in data set [5] (ATCC28707, 24 h, read at 24 hr, read-out: Minimum Inhibitory Conc. (MIC), 24 hr.) was 0.5 µg/mL; in [5] (ATCC28707, 48 h, read at 48 hr, read-out: Minimum Inhibitory Conc. (MIC), 48 hr.), 0.5 µg/mL; in [6] (LH000664533, 24 h, read at 24 hr, read-out: Minimum Inhibitory Conc. (MIC), 24 hr.), 2 µg/mL; in data set [6] (LH000664533, 48 h, read at 48 hr, read-out: Minimum Inhibitory Conc. (MIC), 48 hr.), 2 µg/mL; in data set [7] (Nakaseomyces glabratus, ERHBC9938274, 24 h, read at 24 hr, read-out: Minimum Inhibitory Conc. (MIC), 24 hr.), 0.5 µg/mL; in data set [7] (Nakaseomyces glabratus, ERHBC9938274, 48 h, read at 48 hr, read-out: Minimum Inhibitory Conc. (MIC), 48 hr.) it was 1 µg/mL. Moreover, the minimum inhibitory concentration (MIC) in [9] (KJP000531594, 24 h, read at 24 hr, isolate not given, assigned by line order and MLC of Table 4B, read-out: Minimum Inhibitory Conc. (MIC), 24 hr.) is 1 µg/mL; in data set [9] (KJP000531594, 48 h, read at 48 hr, isolate assigned by line order, read-out: Minimum Inhibitory Conc. (MIC), 48 hr.), 2 µg/mL; in data set [10] (DLB1027594CNC, 48 h, read at 48 hr, read-out: Minimum Inhibitory Conc. (MIC), 48 hr.) it was 1 µg/mL; in [10] (DLB1027594CNC, 72 h, read at 72 hr, read-out: Minimum Inhibitory Conc. (MIC), 72 hr.), 1 µg/mL; in data set [11] (Candida albicans, ATCC10231, read-out: MIC Candida albicans (ATCC 10231)), 6.2 µg/mL; in data set [12] (ATCC750, 24 h, read at 24 hr, read-out: Minimum Inhibitory Conc. (MIC), 24 hr.), 1 µg/mL. The MIC in data set [12] (ATCC750, 48 h, read at 48 hr, read-out: Minimum Inhibitory Conc. (MIC), 48 hr.) worked out at 1 µg/mL. Further, the MFC in data set [1] (SLPBC0012854, read-out: Minimum Lethal Conc. (MLC)) was found to be 2 µg/mL; in data set [2] (Nakaseomyces glabratus, JHCBC9951635, read-out: Minimum Lethal Conc. (MLC)), 4 µg/mL; in [5] (ATCC28707, read-out: Minimum Lethal Conc. (MLC)), 2 µg/mL; in data set [6] (LH000664533, read-out: Minimum Lethal Conc. (MLC)), 8 µg/mL; in [7] (Nakaseomyces glabratus, ERHBC9938274, read-out: Minimum Lethal Conc. (MLC)) it was 4 µg/mL; in [10] (DLB1027594CNC, read-out: Minimum Lethal Conc. (MLC)), 2 µg/mL. In addition, the MFC in data set [12] (ATCC750, read-out: Minimum Lethal Conc. (MLC)) was found to be 4 µg/mL. Besides, the “Minimum Inhibitory Conc. (MIC), 24 hr.” value in [2] (read at 24 hr) and in [7] (read at 24 hr) was 1 µg/mL throughout. Also, the IC50 in data set [8] was 20 µM; in data set [8] (IC50 (μg/mL) for Inhibit. of NAD Synthetase, table of structures used in the yeast assay (Example 4)), 31.7 µM.
